This note sets out measurements from patent US10688099B2, “Methods for modulating the amount of RNA transcripts” (PTC Therapeutics, Inc., priority 2013, dated 2020).

For the test, the system named is RNA isoforms in PNN 1-46 SMA type I patient-derived fibroblasts. Nature of the test: RNA Abundance Modulation (RNA isoform abundance, iFPM, HiSeq RNA sequencing). Type of test: cell-based, human. As to conditions: 24 hrs, PNN 1-46 fibroblasts. Here is the method:
Cells from a cell line of interest are cultured in conditions sufficient to yield the number of cells capable of generating enough RNA for subsequent sequencing steps. Cells from the tested cell line are contacted with a compound described herein.
To culture said cells, they are seeded, at appropriate concentrations in a volume of media in a cell culture container and incubated for 4, 5, 6, 7, 8, 9, 10, or more hours. A concentrated solution of compound in a vehicle (e.g., DMSO) is then added in sufficient volume to result in the intended final concentration of the compound, for example 100 nM, 500 nM, 1 μM, 5 μM, 10 μM, 15 μM, 20 μM, or more. The cells may also be treated with vehicle alone, as a control. A number of replicates of each concentration or control may be made (e.g., 2 replicates). The cells are then incubated at a constant temperature appropriate for cell culture of the particular cell line (e.g., 37° C.) for 6, 12, 18, 24, 48, or more hours. After incubation, the growth medium is removed and the cells are washed with the appropriate buffer (e.g., PBS). Cells are then removed from adherence to the cell culture container by treatment with a solution containing trypsin, and the trypsin subsequently quenched with the appropriate volume of buffer (e.g., DMEM-FBS). The cells are then pelleted with gentle centrifugation (e.g., ≤90×g centrifugal force) and resuspended in a buffer to lyse the cells for extraction of RNA. The cell lysates may then be frozen (e.g., at −80° C.) or, alternately, may immediately be used in a procedure to purify the RNA (e.g. by use of the RNEASY PLUS® minikit). The RNA from cell lysates is eluted in the appropriate volume of buffer (e.g., RNEASE-FREE H2O®). The resulting purified RNA may then be sequenced (e.g., using RNASeq) or analyzed using a human exon array (e.g., by GENECHIP® human exon array) to determine changes in the RNA levels in those cells treated with compound compared to those cells treated only with DMSO. The purified RNA may also be quantified by other methods known in the art.
Using the RNA data obtained from sequencing, exon array, or other methods, a statistical analysis can reveal changes in the RNA levels of compound-treated compared with control. For example, t-test p-values may be calculated for the data obtained through sequencing and exon array methods in order to compare compound-treated cells to those treated with the DMSO control. […] Analysis of the sequencing and exon array data may then also yield predictions about the cause of the aberrant amount of an RNA transcript in the cells (e.g., perturbation of RNA splicing, RNA transcription, or RNA stability). These predictions may be further confirmed by methods known in the art. For example, RT-PCR and RT-qPCR may be used to confirm the change in amount of RNA transcripts for one or more particular transcripts of interest.
Following the methods described above in Example 1, PNN 1-46 SMA type I patient-derived fibroblasts were treated with 300 nM or 3 μM Compounds 774 and 808 in 0.5% DMSO.
700,000 cells were seeded in 10 mL of medium (DMEM plus 10% FBS) in a T-75 flask. Cells were allowed to attach for at least 4 hrs, after which 50 μL of a 200× compound solution (100% DMSO) was added to each well, and the plate was incubated at 37° C. for 24 hrs.
At the end of the incubation period, the supernatant was removed and the cells where washed with PBS. TrypLE (Invitrogen) express solution was added (e.g. 1.5 mL per one T75 flask). The flasks were incubated for 3 to 5 min at 37° C. The trypsin was then quenched, e.g., by adding 10 mL DMEM-FBS.
Next, the cells were pelleted using gentle centrifugation without exceeding 90×g centrifugal force. The supernatant was removed and the cell pellet was re-suspended in 600 μL RLT buffer (the RLT buffer was supplemented with beta-mercaptoethanol according to the RNeasy protocol manual) by pipetting up and down until the pellet was completely dissolved […]

For the molecule `Cc1cn2cc(-c3cc(=O)n4cc(N5CCN(C)CC5)ccc4n3)cc(C)c2n1` [Compound 808], the “RNA abundance modulation (effect on isoform fold increase)” value is reported as “modulates RNA abundance” (0.3 μM) and “modulates RNA abundance” (3 μM).
